Counter-ions that a name gives are not always drawn.
How the values were obtained:
[1] = Solubility in dissolution media / solvents; assay type: physicochemical; conditions: 0.01 M HCl or simulated gastric juice (pH=1.2)
Method: WO 05/025566 is directed to irbesartan-containing oral pharmaceutical formulations having improved dissolution profiles, and especially dissolution of 80% or more 15 minutes after dosing and of 90% or more 30 minutes after dosing.

[2] = as described in WO 05/025566; cited from earlier work

CCCCC1=NC2(CCCC2)C(=O)N1Cc1ccc(-c2ccccc2-c2nnn[nH]2)cc1 [irbesartan-HCl, irbesartan hydrochloride]
Solubility as compared to the free irbesartan [1]: higher

CCCCC1=NC2(CCCC2)C(=O)N1Cc1ccc(-c2ccccc2-c2nnn[nH]2)cc1 [irbesartan, 2-Butyl-3-[[2′-(1H-tetrazol-5-yl) [1,1′-biphenyl]-4-yl]methyl]-1,3-diazaspiro[4,4]-non-1-en-4-one]
Solubility in alcohol and CH2Cl2 [2]: slightly soluble | Solubility in water [2]: insoluble

From patent US20110045097A1, “SOLID PHARMACEUTICAL COMPOSITION COMPRISING IRBESARTAN” (KRKA, d.d. Novo mesto, priority 2006, published 2011)
